pEC50: −log10 of the molar value.
Tests used:
delF508-CFTR-HRP = molecular target: T1, delF508-CFTR-HRP (Homo sapiens, UniProt P13569, DEL508-508); assay: Measurement of delF508-CFTR-HRP surface expression in CFBE41o- cells (HRP luminescence); type: cell-based; details: for Emax: CFBE41o-, read-out: DelF508-CFTR-HRP Amax %; for pEC50: mean of at least two replicates;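 on DelF508-CFTR-HRP Amax %: percent efficacy relative to a reference CFTR corrector compound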
T1 construct: expressed in transfected cells
Summary of the method: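 Stably transfected CFBE41o- cells carrying HRP in the fourth extracellular loop of delF508-CFTR, induced with 500 ng/mL doxycycline for 48 h, then compound-treated 24 h at 37° C (10-point, 3-fold, top 10 μM). Surface HRP detected by luminescent substrate; EC50 from logistic fit, triplicates, normalized to lowest-concentration median.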

delF508-CFTR = molecular target: T2, delF508-CFTR (Homo sapiens, UniProt P13569, DEL508-508); assay: delF508-CFTR functional activity in primary human bronchial epithelial cells (HBECs), Multi-Transepithelial Clamp Circuit (MTECC-24) assay, equivalent short circuit current; type: cell-based; details: primary CF HBECs; for MTECC24 CFHBEC-Amax %: relative to reference combination 2 μM 3-(6-(1-(2,2-difluorobenzo[d][1,3]dioxol-5-yl)cyclopropane-1-carboxamido)-3-methylpyridin-2-yl)benzoic acid (24 h) + 0.5 μM N-(2,4-di-tert-butyl-5-hydroxyphenyl)-4-oxo-1,4-dihydroquinoline-3-carboxamide; for pEC50: test compound added 24 h before assay, potentiator (S)-3-amino-6-methoxy-N-(3,3,3-trifluoro-2-hydroxy-2-methylpropyl)-5-(trifluoromethyl)picolinamide present at assay, mean of at least two replicates, read-out: MTECC24 CFHBEC-EC50
T2 construct: functional activity of the CFTR channel (Chloride ion transport) in patient derived primary human bronchial epithelial cells; host or cells: patient-derived primary human bronchial epithelial cells (HBECs), delF508-CFTR
Summary of the method: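 Patient-derived delF508 HBECs, grown at air-liquid interface about two weeks, were corrected with compound basolaterally for 24 h. Compound was then re-added apically and basolaterally in HEPES pH7.4 assay medium, with sequential modulators including forskolin and the picolinamide potentiator. Ieq was recorded, normalised to 0.1% DMSO wells, and EC50 fitted from 10-point curves.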

T2 sequence (P13569 with tags, fused parts or gaps DEL508-508): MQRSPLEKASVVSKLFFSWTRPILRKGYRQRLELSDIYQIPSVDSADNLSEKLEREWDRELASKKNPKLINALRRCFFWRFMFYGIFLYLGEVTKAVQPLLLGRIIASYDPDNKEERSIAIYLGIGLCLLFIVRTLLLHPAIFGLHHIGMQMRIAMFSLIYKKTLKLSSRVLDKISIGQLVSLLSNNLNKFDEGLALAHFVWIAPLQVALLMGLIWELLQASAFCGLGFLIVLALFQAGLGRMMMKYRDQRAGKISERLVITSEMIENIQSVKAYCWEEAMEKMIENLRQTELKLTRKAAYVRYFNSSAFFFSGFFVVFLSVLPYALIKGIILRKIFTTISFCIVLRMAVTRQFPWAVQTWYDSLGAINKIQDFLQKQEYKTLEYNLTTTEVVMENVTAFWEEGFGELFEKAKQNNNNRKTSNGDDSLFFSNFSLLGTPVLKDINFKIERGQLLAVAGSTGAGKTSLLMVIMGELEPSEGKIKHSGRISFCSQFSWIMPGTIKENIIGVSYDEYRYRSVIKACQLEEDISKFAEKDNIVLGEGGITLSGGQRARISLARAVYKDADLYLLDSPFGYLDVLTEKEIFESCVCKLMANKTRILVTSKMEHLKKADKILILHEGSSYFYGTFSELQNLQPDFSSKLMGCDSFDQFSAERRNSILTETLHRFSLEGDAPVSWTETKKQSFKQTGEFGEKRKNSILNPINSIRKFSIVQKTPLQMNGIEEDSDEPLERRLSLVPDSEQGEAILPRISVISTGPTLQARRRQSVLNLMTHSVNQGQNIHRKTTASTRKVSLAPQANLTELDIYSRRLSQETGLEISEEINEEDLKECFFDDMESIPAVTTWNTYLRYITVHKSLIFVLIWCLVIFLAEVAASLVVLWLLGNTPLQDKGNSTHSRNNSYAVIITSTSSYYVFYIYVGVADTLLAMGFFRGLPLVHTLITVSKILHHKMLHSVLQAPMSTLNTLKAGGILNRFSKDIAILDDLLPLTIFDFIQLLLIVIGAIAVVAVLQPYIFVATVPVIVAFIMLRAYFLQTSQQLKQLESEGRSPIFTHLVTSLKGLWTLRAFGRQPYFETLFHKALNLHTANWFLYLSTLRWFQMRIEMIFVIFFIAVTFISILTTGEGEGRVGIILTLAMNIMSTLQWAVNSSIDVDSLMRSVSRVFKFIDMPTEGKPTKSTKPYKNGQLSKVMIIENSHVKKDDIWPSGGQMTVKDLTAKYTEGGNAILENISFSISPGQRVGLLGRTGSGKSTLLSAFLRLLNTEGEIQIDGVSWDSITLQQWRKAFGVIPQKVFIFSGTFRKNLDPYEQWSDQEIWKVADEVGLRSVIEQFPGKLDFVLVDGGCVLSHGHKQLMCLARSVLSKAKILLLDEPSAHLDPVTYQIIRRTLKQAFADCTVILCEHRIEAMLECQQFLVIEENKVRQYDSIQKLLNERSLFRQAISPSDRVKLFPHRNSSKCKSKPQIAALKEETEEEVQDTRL
T1 sequence (P13569 with tags, fused parts or gaps DEL508-508): as above

Compound | Emax (delF508-CFTR-HRP) [%] | pEC50 (delF508-CFTR-HRP) | MTECC24 CFHBEC-Amax % (delF508-CFTR) [%] | pEC50 (delF508-CFTR) | DelF508-CFTR-HRP Amax % (delF508-CFTR-HRP) [%]
Cc1ccc(C2CCCCC2)c(OC2(C(=O)NS(=O)(=O)c3cccc(N4CCO[C@@H](C)C4)n3)CC2)c1 [Example 2-52, (S)-1-(2-Cyclohexyl-5-methylphenoxy)-N-((6-(2-methylmorpholino)pyridin-2-yl)sulfonyl)cyclopropane-1-carboxamide] | 416 | 5.89 | 75 | 8.15 | –
Cc1ccc(C2CCCCC2)c(OC2(C(=O)NS(=O)(=O)c3cccc(N4CCNC(=O)CC4)n3)CC2)c1 [Example 2-40, 1-(2-Cyclohexyl-5-methylphenoxy)-N-((6-(5-oxo-1,4-diazepan-1-yl)pyridin-2-yl)sulfonyl)cyclopropanecarboxamide] | 123 | 5.42 | 76 | 6.92 | –
COC(=O)C1CCN(c2cccc(S(=O)(=O)NC(=O)C3(Oc4cc(C)ccc4C4CCCCC4)CC3)n2)CC1 [Example 2-4, Methyl 1-(6-(N-(1-(2-cyclohexyl-5-methylphenoxy)cyclopropane-1-carbonyl)sulfamoyl)pyridin-2-yl)piperidine-4-carboxylate] | 808 | 5.89 | 91 | 8.00 | –
Cc1ccc(CC(C)C)c(OC2(C(=O)NS(=O)(=O)c3cccc(N4CCC[C@@H](CO)C4)n3)CC2)c1 [Example 4-8, (R)-N-((6-(3-(hydroxymethyl)piperidin-1-yl)pyridin-2-yl)sulfonyl)-1-(2-isobutyl-5-methylphenoxy)cyclopropane-1-carboxamide] | 388 | 5.66 | 80 | 7.96 | –
Cc1ccc(S(=O)(=O)N2CC3(CCN3c3cccc(S(=O)(=O)NC(=O)C4(Oc5cc(C)ccc5C5CCCCC5)CC4)n3)C2)cc1 [Example 2-56, 1-(2-Cyclohexyl-5-methylphenoxy)-N-((6-(6-tosyl-1,6-diazaspiro[3.3]heptan-1-yl)pyridin-2-yl)sulfonyl)cyclopropane-1-carboxamide] | 381 | 5.60 | 83 | 7.40 | –
Cc1ccc(C2CCCCC2)c(OC2(C(=O)NS(=O)(=O)c3cccc(N4CCC(CF)(NC(=O)OC(C)(C)C)CC4)n3)CC2)c1 [Example 2-42, Tert-butyl (1-(6-(N-(1-(2-cyclohexyl-5-methylphenoxy)cyclopropanecarbonyl)sulfamoyl)pyridin-2-yl)-4-(fluoromethyl)piperidin-4-yl)carbamate] | 284 | 6.06 | 90 | 8.22 | –
Cc1ccc(C2CCCCC2)c(OC2(C(=O)NS(=O)(=O)c3cccc(N4CCN(C(=O)OC(C)(C)C)CC4)n3)CC2)c1 [Example 2-34, Tert-butyl 4-(6-(N-(1-(2-cyclohexyl-5-methylphenoxy)cyclopropanecarbonyl)sulfamoyl)pyridin-2-yl)piperazine-1-carboxylate] | 366 | 5.96 | 57 | 7.82 | –
C[C@H](O)CNc1cccc(S(=O)(=O)NC(=O)C2(Oc3cc(Cl)ccc3C3CC3)CC2)n1 [Example 4-15, (S)-1-(5-Chloro-2-cyclopropylphenoxy)-N-((6-((2-hydroxypropyl)amino)pyridin-2-yl)sulfonyl)cyclopropane-1-carboxamide] | 114 | 5.38 | 35 | 7.16 | –
Cc1ccc(C2CCCCC2)c(OC2(C(=O)NS(=O)(=O)c3cccc(N[C@H]4C[C@@H](O)C4)n3)CC2)c1 [Example 2-36, 1-(2-Cyclohexyl-5-methylphenoxy)-N-((6-((cis-3-hydroxycyclobutyl)amino)pyridin-2-yl)sulfonyl)cyclopropane-1-carboxamide] | 432 | 5.68 | 152 | 7.36 | –
Cc1ccc(C2CCCCC2)c(OC2(C(=O)NS(=O)(=O)c3cccc(NC[C@@H](C)O)n3)CC2)c1 [Example 2-46, (R)-1-(2-cyclohexyl-5-methylphenoxy)-N-((6-((2-hydroxypropyl)amino)pyridin-2-yl)sulfonyl)cyclopropane-1-carboxamide] | 813 | 5.54 | 89 | 8.52 | –
Cc1ccc(C2CCCCC2)c(OC2(C(=O)NS(=O)(=O)c3cccc(N4CCC5(CCCC5N)CC4)n3)CC2)c1 (single isomer, unassigned) [Example 2-32-1, N-((6-(1-Amino-8-azaspiro[4.5]decan-8-yl)pyridin-2-yl)sulfonyl)-1-(2-cyclohexyl-5-methylphenoxy)cyclopropanecarboxamide] | – | 5.47 | 78 | 7.92 | 537
Cc1ccc(C2CCCCC2)c(OC2(C(=O)NS(=O)(=O)c3cccc(N4CCO[C@H](C)C4)n3)CC2)c1 [Example 2-53, (R)-1-(2-Cyclohexyl-5-methylphenoxy)-N-((6-(2-methylmorpholino)pyridin-2-yl)sulfonyl)cyclopropane-1-carboxamide] | 416 | 5.80 | 82 | 8.70 | –

Continued, values first:

Emax (delF508-CFTR-HRP) [%] | pEC50 (delF508-CFTR-HRP) | MTECC24 CFHBEC-Amax % (delF508-CFTR) [%] | pEC50 (delF508-CFTR) | DelF508-CFTR-HRP Amax % (delF508-CFTR-HRP) [%] | Compound
496 | 5.96 | 128.1 | 6.50 | – | CO[C@H]1CCN(c2cccc(S(=O)(=O)NC(=O)C3(Oc4cc(Cl)ccc4C4CC5(CCC5)C4)CC3)n2)C1 [Example 7-14, (S)-1-(5-Chloro-2-(spiro[3.3]heptan-2-yl)phenoxy)-N-((6-(3-methoxypyrrolidin-1-yl)pyridin-2-yl)sulfonyl)cyclopropane-1-carboxamide]
543 | 5.89 | 81.1 | 6.67 | – | C[C@@H]1CN(c2cccc(S(=O)(=O)NC(=O)C3(Oc4cc(Cl)ccc4C4CC5(CCC5)C4)CC3)n2)CCO1 [Example 7-13, (R)-1-(5-Chloro-2-(spiro[3.3]heptan-2-yl)phenoxy)-N-((6-(2-methylmorpholino)pyridin-2-yl)sulfonyl)cyclopropane-1-carboxamide]
656 | 5.80 | 79.3 | 6.54 | – | CC1(C)CCN(c2ccc(Cl)cc2OC2(C(=O)NS(=O)(=O)c3cccc(N4CCC(O)CC4)n3)CC2)CC1 [Example 9-41, 1-(5-Chloro-2-(4,4-dimethylpiperidin-1-yl)phenoxy)-N-((6-(4-hydroxypiperidin-1-yl)pyridin-2-yl)sulfonyl)cyclopropane-1-carboxamide]
317 | 5.66 | 138.2 | 6.06 | – | O=C(NS(=O)(=O)c1cccc(N2CC[C@H](O)C2)n1)C1(Oc2cc(Cl)ccc2N2CCC(C(F)(F)F)CC2)CC1 [Example 9-16, (S)-1-(5-Chloro-2-(4-(trifluoromethyl)piperidin-1-yl)phenoxy)-N-((6-(3-hydroxypyrrolidin-1-yl)pyridin-2-yl)sulfonyl)cyclopropanecarboxamide]
230 | 5.41 | 67 | 6.82 | – | Cc1ccc(OCc2ccccc2)c(OC2(C(=O)NS(=O)(=O)c3cccc(N4CCO[C@@H](C)C4)n3)CC2)c1 [Example 6-1, (S)-1-(2-(Benzyloxy)-5-methylphenoxy)-N-((6-(2-methylmorpholino)pyridin-2-yl)sulfonyl)cyclopropanecarboxamide]
350 | 5.57 | 79.2 | 5.84 | – | Cc1ccc(OC2Cc3ccccc3C2)c(OC2(C(=O)NS(=O)(=O)c3cccc(N4CC[C@H](O)C4)n3)CC2)c1 [Example 6-10, (S)-1-(2-((2,3-dihydro-1H-inden-2-yl)oxy)-5-methylphenoxy)-N-((6-(3-hydroxypyrrolidin-1-yl)pyridin-2-yl)sulfonyl)cyclopropanecarboxamide]
297 | 5.57 | 111.4 | 6.07 | – | CC(C)CCOc1ccc(Cl)cc1OC1(C(=O)NS(=O)(=O)c2cccc(N3CC[C@H](O)C3)n2)CC1 [Example 6-12, (S)-1-(5-chloro-2-(isopentyloxy)phenoxy)-N-((6-(3-hydroxypyrrolidin-1-yl)pyridin-2-yl)sulfonyl)cyclopropanecarboxamide]
371 | 5.61 | 57 | 8.22 | – | Cc1ccc(-c2cccc(OC(F)(F)F)c2)c(OC2(C(=O)NS(=O)(=O)c3cccc(N4CC(C)(O)C4)n3)CC2)c1 [Example 5-8, N-((6-(3-Hydroxy-3-methylazetidin-1-yl)pyridin-2-yl)sulfonyl)-1-((4-methyl-3′-(trifluoromethoxy)-[1,1′-biphenyl]-2-yl)oxy)cyclopropane-1-carboxamide]

— patent US20220033407A1, “N-(pyridin-2-ylsulfonyl)cyclopropanecarboxamide Derivatives and their Use in the Treatment of Disease” (NOVARTIS AG, priority 2018, published 2022)
